According to patent publication US7855177B1, “Methods and kits for preventing hypoglycemia” (Cebix Inc., priority 2009, dated 2010):

Columns and labels:
C-peptide antibodies = assay: Phase II trial: antibody formation against C-peptide (ELISA); format: in vivo, human; details: baseline and after 3 and 6 months of C-peptide treatment
From the text: C-peptide plasma samples, C-peptide antibodies, and markers for atherosclerosis were processed (centrifuged, etc.) and stored frozen until transport to a central lab. HLA typing samples were shipped to a central lab for processing and storage until analysis. All samples there were labelled uniquely, including information about screening number and sample time.
Samples for the assessment of antibody formation were collected at baseline and at visits 2 and 4. An appropriate enzyme-linked immunoabsorbant assay (ELISA) method was developed and assessments carried out.

[1] = test system: type 1 diabetes patients with peripheral neuropathy; assay: Phase II trial: clinical laboratory evaluation (hematology, blood chemistry, urinalysis); format: in vivo, human; details: following the study treatment
From the text: Hematology: hemoglobin, hematocrit, mean cell volume, leukocytes, platelets, differential count
Blood chemistry: sodium, potassium, C-reactive protein (CRP), alanine transaminase, aspartate transaminase, serum creatinine, albumin
Urinanalysis: protein, blood, nitrite
Before starting the study, the investigator supplied the Sponsor with a list of the normal laboratory ranges and units of measurement for the laboratory variables to be determined during the study at the site. All abnormal laboratory (those out of the normal range) values required comments on the CRF, regardless of the clinical significance: […]

[2] = test system: type 1 diabetes patients with peripheral neuropathy; details: in vivo
Protocol: The safety measurements comprised collection of AEs, spontaneously reported by the patient or recorded by the investigator at each clinical visit. Review of laboratory investigations, vital signs, and physical examinations was performed at the S/B visit, visit 2, and at end of study (visit 4). ECG was performed at the S/B visit and at visit 4.
An AE was classified as “unexpected event” (i.e., if not specifically listed in the Investigator's Brochure) in terms of nature, severity, or frequency. All AEs, including intercurrent illnesses and increased severity or frequency of sign/symptoms of a concomitant disease was reported and documented as described below. AEs were documented on an “Adverse Event/Serious Adverse Event” page of the CRF and in the patient's medical records. Any AE occurring at any time after the end of the study, considered to be caused by the study medication—and therefore a possible adverse drug reaction—was reported to the sponsor.
The period of observation for AEs extended from the time the patient started on trial medication until end of the study. AEs were divided into the categories “serious” and “non-serious”. This determined the procedure used to report/document the AE.
Regardless of the classification of an AE as serious or non-serious (see above), its severity was assessed as mild, moderate, or severe, according to medical criteria alone:
Descriptive statistics were used for safety variables. For lab parameters summary statistics were presented as change from baseline and between doses. The changes from baseline were calculated and compared with normal ranges. The safety analysis set included all patients who obtained at least one dose of the investigational drug. AEs were coded according to the MedDRA dictionary. The frequencies of AEs are tabulated by body system and included/preferred term.

[3] = S.C.; cited from earlier work
[4] = test system: type 1 diabetes patients with peripheral neuropathy; assay: Phase II trial: ECG and vital signs; format: in vivo, human; details: for BPd (diastolic blood pressure), change from baseline to 6 months treatment, Mean ± SD / BPd (diastolic blood pressure), change from baseline to 6 months treatment, Median / BPs (systolic blood pressure), change from baseline to 6 months treatment, Mean ± SD / BPs (systolic blood pressure), change from baseline to 6 months treatment, Median / Heart rate, change from baseline to 6 months treatment, Mean ± SD / Heart rate, change from baseline to 6 months treatment, Median / QTc-interval Bazett, change from baseline to 6 months treatment, Mean ± SD / QTc-interval Bazett, change from baseline to 6 months treatment, Median / QTc-interval Fredericia, change from baseline to 6 months treatment, Mean ± SD / QTc-interval Fredericia, change from baseline to 6 months treatment, Median: PP data set
Protocol: ECG was performed at baseline and at end of study, i.e., visit 4 (at 6 months±2 weeks from the S/B visit).

[5] = test system: type 1 diabetes patients with peripheral neuropathy; assay: Phase II trial: hypoglycemic events and hypoglycemic coma; format: in vivo, human
Protocol: The study was a multicenter, double-blind, randomized, placebo-controlled phase II trial comparing the effect of subcutaneous injection (S.C.) of 500 nmoL/24 h (1.5 mg) C-peptide; 1,500 nmoL/24 h (4.5 mg) C-peptide and placebo treatment for 6 months in type 1 diabetes patients with peripheral neuropathy.
Hypoglycemic events are common events in insulin-treated patients. For practical reasons only severe hypoglycemic events, i.e., if the patient required assistance from another person in order to regain normoglycaemia, were reported as an AE.

[6] = High-dose C-peptide, Metabolism and nutritional disorders
[7] = Low-dose C-peptide, Metabolism and nutritional disorders

SMILES: CC(C)C[C@H](NC(=O)[C@H](C)NC(=O)[C@H](CC(C)C)NC(=O)[C@@H]1CCCN1C(=O)[C@H](CCC(N)=O)NC(=O)[C@H](CC(C)C)NC(=O)[C@H](CO)NC(=O)CNC(=O)[C@H](C)NC(=O)CNC(=O)[C@@H]1CCCN1C(=O)CNC(=O)CNC(=O)CNC(=O)[C@H](CC(C)C)NC(=O)[C@H](CCC(=O)O)NC(=O)[C@@H](NC(=O)[C@H](CCC(N)=O)NC(=O)CNC(=O)[C@@H](NC(=O)[C@H](CCC(N)=O)NC(=O)[C@H](CC(C)C)NC(=O)[C@H](CC(=O)O)NC(=O)[C@H](CCC(=O)O)NC(=O)[C@H](C)NC(=O)[C@@H](N)CCC(=O)O)C(C)C)C(C)C)C(=O)N[C@@H](CCC(=O)O)C(=O)NCC(=O)N[C@@H](CO)C(=O)N[C@@H](CC(C)C)C(=O)N[C@@H](CCC(N)=O)C(=O)O [C-peptide]
- reactivity (antibodies) to C-peptide (C-peptide antibodies): no or very weak reactivity
- changes in laboratory variables [1]: no significant changes in any of the variables
- AEs possibly/probably related to the study drug [2]: 8
- Acute HIV infection, number of AEs [2]: 1
- Infections and infestations: Acute HIV infection, treatment emergent AE intensity (number of incidences) [2]: M (1)
- Infections and infestations: Herpes zoster, treatment emergent AE intensity (number of incidences) [2]: M (1)
- Nasopharyngitis, number of AEs [2]: 23
- bioavailability of subcutaneously administered C-peptide [3]: approximately 80%
- BPd (diastolic blood pressure), change from baseline to 6 months treatment, Mean ± SD ([4]; High-dose C-peptide, n = 39): −2.6 ± 8.0 mm Hg
- BPd (diastolic blood pressure), change from baseline to 6 months treatment, Median ([4]; High-dose C-peptide, n = 39): −1.0 mm Hg
- BPs (systolic blood pressure), change from baseline to 6 months treatment, Mean ± SD ([4]; High-dose C-peptide, n = 39): −8.8 ± 10.0 mm Hg
- BPs (systolic blood pressure), change from baseline to 6 months treatment, Median ([4]; High-dose C-peptide, n = 39): −8.0 mm Hg
- Heart rate, change from baseline to 6 months treatment, Mean ± SD ([4]; High-dose C-peptide, n = 39): −3.2 ± 10.0 bpm
- Heart rate, change from baseline to 6 months treatment, Median ([4]; High-dose C-peptide, n = 39): −4.0 bpm
- QTc-interval Bazett, change from baseline to 6 months treatment, Mean ± SD ([4]; High-dose C-peptide, n = 39): -4.5 ± 20.3 ms
- QTc-interval Bazett, change from baseline to 6 months treatment, Median ([4]; High-dose C-peptide, n = 39): 0.0 ms
- QTc-interval Fredericia, change from baseline to 6 months treatment, Mean ± SD ([4]; High-dose C-peptide, n = 39): -0.5 ± 16.2 ms
- QTc-interval Fredericia, change from baseline to 6 months treatment, Median ([4]; High-dose C-peptide, n = 39): 0.0 ms
- BPd (diastolic blood pressure), change from baseline to 6 months treatment, Mean ± SD ([4]; Low-dose C-peptide, n = 53): −2.7 ± 8.2 mm Hg
- BPd (diastolic blood pressure), change from baseline to 6 months treatment, Median ([4]; Low-dose C-peptide, n = 53): −1.0 mm Hg
- BPs (systolic blood pressure), change from baseline to 6 months treatment, Mean ± SD ([4]; Low-dose C-peptide, n = 53): −2.1 ± 12.8 mm Hg
- BPs (systolic blood pressure), change from baseline to 6 months treatment, Median ([4]; Low-dose C-peptide, n = 53): −1.0 mm Hg
- Heart rate, change from baseline to 6 months treatment, Mean ± SD ([4]; Low-dose C-peptide, n = 53): −0.9 ± 8.2 bpm
- Heart rate, change from baseline to 6 months treatment, Median ([4]; Low-dose C-peptide, n = 53): −2.0 bpm
- QTc-interval Bazett, change from baseline to 6 months treatment, Mean ± SD ([4]; Low-dose C-peptide, n = 53): -0.1 ± 17.5 ms
- QTc-interval Bazett, change from baseline to 6 months treatment, Median ([4]; Low-dose C-peptide, n = 53): 0.0 ms
- QTc-interval Fredericia, change from baseline to 6 months treatment, Mean ± SD ([4]; Low-dose C-peptide, n = 53): 0.9 ± 14.1 ms
- QTc-interval Fredericia, change from baseline to 6 months treatment, Median ([4]; Low-dose C-peptide, n = 53): 1.3 ms
- changes in heart rate, blood pressure, and QTc ([4]; any of the three treatment groups): nor were there any significant changes
- decrease in systolic blood pressure compared to the low-dose C-peptide group ([4]; high-dose C-peptide group, p<0.004, not different from placebo): significantly greater decrease
- hypoglycemic coma episodes requiring external assistance ([5]; C-peptide treated group): Two
- occurrences of hypoglycemic coma ([5]; C-peptide treated groups, 6 months, none in placebo group): four
- Blood glucose fluctuation, number of AEs [5, 6]: 0
- Hyperglycemia, number of AEs [5, 6]: 1
- Hyperlipidemia, number of AEs [5, 6]: 0
- Hypoglycemia, number of AEs [5, 6]: 5
- Hypoglycemia, number of AEs probably/possibly related to study drug [5, 6]: 1
- Hypoglycemic coma, number of AEs [5, 6]: 2
- Hypothyroidism, number of AEs [5, 6]: 0
- Increased appetite, number of AEs [5, 6]: 0
- Insulin sensitivity, number of AEs [5, 6]: 0
- Vitamin B12 deficiency, number of AEs [5, 6]: 1
- Blood glucose fluctuation, number of AEs [5, 7]: 0
- Hyperglycemia, number of AEs [5, 7]: 1 (1)
- Hyperglycemia, number of AEs probably/possibly related to study drug [5, 7]: 1 (1)
- Hyperlipidemia, number of AEs [5, 7]: 1
- Hypoglycemia, number of AEs [5, 7]: 2
- Hypoglycemia, number of AEs probably/possibly related to study drug [5, 7]: 1
- Hypoglycemic coma, number of AEs [5, 7]: 2
- Hypothyroidism, number of AEs [5, 7]: 0
- Increased appetite, number of AEs [5, 7]: 0
- Insulin sensitivity, number of AEs [5, 7]: 1 (1)
- Insulin sensitivity, number of AEs probably/possibly related to study drug [5, 7]: 1 (1)
- Vitamin B12 deficiency, number of AEs [5, 7]: 0
- risk of hypoglycemic coma ([5]; subpopulation of patients, C-peptide replacement therapy): increased risk of hypoglycemic coma
